# Results taken from a melting point compilation (Tetko et al.; mined from patent text by program, amines drawn as free bases though some values may be those of a salt).
row,Structure (SMILES),melting point [°C]
1,COCCNS(=O)(=O)c1cc2[nH]c(=O)c(=O)[nH]c2cc1[N+](=O)[O-],320 to 321
2,CC(C)C1(CCc2ccccc2CO)CC(O)=C(Sc2sc3ccccc3c2C(C)(C)C)C(=O)O1 (centres undefined),92 to 94
3,CC(=N)Nc1nc(-c2ccccn2)nc2ccccc12,172 to 173
4,CCOC(=O)Cn1cc(Cl)cnc1=O,175 to 177
5,O=c1[nH]c2ccccc2c(=O)n1Cc1cccnc1,241 to 243
6,CCCCCCCCCCNC(=O)C=Cc1cccc(N2CC(C(=O)OCCN(CC)CC)CC2=O)c1 (centres undefined),78 to 80
7,CCCCSc1ccc2c3c(cccc13)C(=O)N2,126 to 129
8,COc1ccc(NC(=O)/C=C/c2ccc(C(C)(C)C)cc2)cc1OC,115 to 116
9,CCOc1nn(-c2ccc(C(F)(F)F)cc2)cc1CCCOc1cc(CCC(=O)O)n(-c2ccccc2)n1,126 to 127
10,CC[C@@H](C)[C@H](N)C(O)(c1ccccc1)c1ccccc1,128 to 129
11,O=C(O)c1cn(-c2nccs2)c2c(F)c(F)c(F)cc2c1=O,198 to 200
12,CC(C)(C)c1nc(C=NO)nc(C(C)(C)C)c1O,205 to 220
13,Nc1ccc(F)c(Cl)c1F,58
14,CCCC(C(=O)O)n1c(=O)c(=O)[nH]c2ccccc21 (centres undefined),272 to 275
15,COc1cc(/C=C/C(=O)Nc2ccccc2C(=O)O)ccc1OCc1cn(CC(=O)Nc2ccccc2)nn1,220 to 222
16,O=C(NNc1ccccc1Cl)c1ccccc1F,105 to 107
17,CCCc1c(C)c2ccc(O)cc2oc1=O,160 to 173
18,CC(=O)NNc1nc(C(F)(F)F)nc(-c2ccc(S(C)(=O)=O)cc2)c1-c1ccc(Cl)cc1,254 to 256
19,Cc1ccc(-n2nc3c(cc2=O)CCCc2sc(CO)cc2-3)cc1,158 to 159
20,Cc1c(Sc2ccccc2C(F)(F)F)c2cc(NS(C)(=O)=O)ccc2n1CC(=O)O,207
21,Cc1c(C#N)c(N)n(-c2ccc([N+](=O)[O-])cc2)c1C,310
22,COc1cccc(C2CCC(=O)N2)c1 (centres undefined),84 to 85
23,Cc1ccc(CS(=O)C2=C(O)CC(C)(C)CC2=O)cc1 (centres undefined),89 to 90.5
24,O=C(Nc1ccc(Br)cc1)N1COC2(c3ccc(F)cc3)Cc3cc(F)ccc3C2=N1 (centres undefined),208 to 209
25,O=C(NC1N=C(c2ccccc2)c2ccccc2NC1=O)c1ccc2ccccc2c1 (racemic),293 to 294

row,Structure (SMILES),melting point [°C]
1,CN1Cc2[nH]c3ccccc3c2C1,110 to 120
2,CNCCCN(C)C(=O)[C@@H]1CCCN1S(=O)(=O)c1ccc(Cl)c(COc2cccc3c(-n4ccnc4)cc(C)nc23)c1Cl,125
3,CC(C)NCCOc1ccc(-c2nc3ccccc3c(=O)[nH]2)nc1-c1ccc(S(C)(=O)=O)cc1,188 to 189
4,COC(=O)C1=C(C)NN=C(c2cccc(Cl)c2)C1c1ccccc1 (centres undefined),176
5,COC(=O)C(=O)c1cc(C(C)(C)C)c(O)c(C(C)(C)C)c1,82.5 to 84
6,NC(=NCCCc1ccccn1)NCCCc1c[nH]cn1,85 to 86
7,Cc1nc(N2CCN(CC3CC3)C2=O)sc1C(=O)NCc1cccnc1,157 to 158
8,Cc1cc(N2CNC(=O)C23CCN(CCCn2c(=O)[nH]c4ccccc42)CC3)ccc1Cl,209
9,CC(=O)OC(c1ccc(Cl)c2nc3n(c12)CCCN3c1ccc(Cl)cc1Cl)C1CC1 (centres undefined),208 to 210
10,NC(=O)c1cccc(-c2ccc(Cl)c3cc(Cc4cc(F)cc(Cl)c4)sc23)c1,169 to 170
11,CNc1c(NCCSCc2ccc(CN(C)C)s2)c(=O)c1=O,185 to 187
12,CCCCc1nc2c(N)nc3cccnc3c2n1CCNC(=O)OC(C)(C)C,118 to 120
13,O=C(NC1CCCCC1)c1c(O)c2cc(F)ccc2n(Cc2ccc(F)cc2)c1=O,118
14,COc1c(-c2cc3c(s2)CCC(O)C3)ccc2c(=O)c(C(=O)O)cn(C3CC3)c12 (centres undefined),232 to 233
15,O=C1c2ccccc2C(O)(c2ccccc2)N1CC(c1ccccc1)c1ccccc1 (centres undefined),230
16,COC(=O)c1ccc(OCCCNc2ccc(NCc3ccc4c(c3)OCCO4)cc2)cc1,185 to 188
17,CCC(C)NC1=NS(=O)(=O)c2sc(C)cc2N1 (centres undefined),224 to 225
18,CC(C)(C)OC(=O)NC1CCC(CON2C(=O)c3ccccc3C2=O)C1 (centres undefined),162 to 163
19,COc1ccc(NC(=O)c2ccncc2)c2c1oc1ccccc12,221
20,COC(=O)C(Cl)Cc1ccc(O)cc1 (centres undefined),57 to 59
21,OCCC(CCO)c1ccccn1,44
22,COC(=O)C(CC(C)C)NC(=O)c1ccc(NCc2ncc[nH]2)cc1-c1ccccc1 (centres undefined),156 to 160
23,CCn1cc(-c2ccncn2)cc(Br)c1=O,195 to 197
24,CCCc1c(C(=O)C(C)C)c2ccc(C(=O)OC)cc2n1Cc1ccccc1C#N,159 to 161
25,COC(OC)C1(C)CCc2c(C)c(O)c(C)c(C)c2O1 (centres undefined),102 to 106

row,Structure (SMILES),melting point [°C]
1,N#Cc1cc2c(Nc3cccc(Cl)c3)ncnc2[nH]1,284 to 287
2,c1cncc(-c2cccc(-n3cnc4cc(-c5ccoc5)cnc43)c2)c1,191 to 192
3,CCSc1ccc2nc(C(F)(F)F)c(S(N)(=O)=O)n2n1,208 to 210
4,COCCCCC1(O)C2=NCCCN2c2ccccc21 (centres undefined),128 to 139
5,CCNC(=O)c1cccc(NC(=O)c2nnn(Cc3ccc(Cl)c(Cl)c3)c2C)c1,192
6,CCc1c(CO)oc2ccc(Br)cc12,93 to 94
7,O=[N+]([O-])c1ccc(S(=O)(=O)On2nnc3ccccc32)cc1,120 to 122
8,CCOC(=O)C1(C(=O)OCC)OC(=O)c2ccccc2C1(O)c1ccc(F)cc1 (centres undefined),102 to 104
9,CC1(C)CC(=O)C(SCc2ccc(F)cc2)=C(O)C1,112
10,CCCOc1ccccc1C1N=C2N=NC=C2C(=O)N1 (centres undefined),182 to 184
11,Oc1ccc2nccc(Cl)c2c1,223
12,BrCCCCOc1ccc(OCc2ccccc2)cc1,70 to 72
13,NS(=O)(=O)c1cccc(-c2cn(-c3nc(-c4ccc(F)cc4)cc(C(F)(F)F)n3)cn2)c1,260
14,CCON=C(C(=O)OC)c1nccc(N)n1,105 to 110
15,CN1C(=O)c2cnc(-c3ccccc3)nc2N(C(=O)CN2CCOCC2)c2ccccc21,180 to 181
16,C(=Cc1cnc2[nH]c3ccccc3c2c1)c1ccccc1,> 220
17,Cc1cccc2c1NC(=O)c1cccnc1N2,233 to 235
18,Nc1nc2c(s1)CCN(CC=Cc1cccc(C(F)(F)F)c1)CC2,102 to 105
19,CCOC(=O)Cc1nn(Cc2nc3cc(C(F)(F)F)ccc3s2)c(=O)c2ccccc12,131 to 132
20,[N-]=[N+]=NS(=O)(=O)c1cc(C(=O)O)c(O)c(S(=O)(=O)N=[N+]=[N-])c1,184 to 186
21,CCc1cc2c(O)cc(=O)oc2cc1OC,174 to 175
22,Cc1onc(C(=O)c2ccccc2Cl)c1N,75 to 78
23,CC(=C(c1ccccc1)c1ccccc1)P(C(C)(C)C)C(C)(C)C,130 to 133
24,CCSc1cc(=O)c2c(O)cc(O)c([C@H]3CCN(C)C[C@H]3O)c2o1 (relative stereo),104
